# From BindingDB's records for doi:10.1039/d3md00655g (Henan University, 2024)
# How the values were obtained:
# [1] = molecular target: Programmed cell death 1 ligand 1 (Homo sapiens) (UniProt Q9NZQ7); assay: Inhibition of PD-1/PD-L1 (unknown origin) protein-protein interaction
# [2] = molecular target: Programmed cell death 1 ligand 1 (Homo sapiens) (UniProt Q9NZQ7); assay: Inhibition of PD-1/PD-L1 (unknown origin) interaction incubated for 15 mins by HTRF assay
# Programmed cell death 1 ligand 1 (Homo sapiens), sequence (Q9NZQ7 whole entry, looked up): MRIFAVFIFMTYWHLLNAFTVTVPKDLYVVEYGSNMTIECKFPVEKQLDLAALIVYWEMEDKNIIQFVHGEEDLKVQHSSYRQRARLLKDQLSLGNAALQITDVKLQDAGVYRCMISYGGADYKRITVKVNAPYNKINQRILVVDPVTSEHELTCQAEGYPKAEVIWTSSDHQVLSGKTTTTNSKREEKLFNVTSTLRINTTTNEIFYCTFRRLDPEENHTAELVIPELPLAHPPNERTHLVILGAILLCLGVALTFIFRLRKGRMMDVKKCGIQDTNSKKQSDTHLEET
Compound,IC50 [1] [µM],IC50 [2] [µM]
COc1nc(-c2cccc(-c3ccccc3F)c2C)ccc1CNCCC(N)=O,0.00093,
Cc1c(COc2ccc(CN3CCNCC3)c(OCc3cn(-c4cccc(C#N)c4)nn3)c2)cccc1-c1ccccc1,,8.52
